Key:
Assay in all cases: Test C preemergence
Format in all cases: in vivo
[1] = tested on: woolly cupgrass (Eriochloa villosa); details: for Plant response rating (0 to 100), Cupgrass, Woolly: Rate 250 g/ha, visual evaluation after 12 to 14 days
Text: (§1) Seeds of plant species selected from bermudagrass (Cynodon dactylon), Surinam grass (Brachiaria decumbens), cocklebur (Xanthium strumarium), corn (Zea mays), crabgrass (Digitaria sanguinalis), woolly cupgrass (Eriochloa villosa), giant foxtail (Setaria faberii), goosegrass (Eleusine indica), johnsongrass (Sorghum halepense), kochia (Kochia scoparia), lambsquarters (Chenopodium album), morningglory (Ipomoea hederacea), yellow nutsedge (Cyperus esculentus), pigweed (Amaranthus retroflexus), common ragweed (Ambrosia elatior), soybean (Glycine max) and velvetleaf (Abutilon theophrasti) were planted and treated preemergence with test chemicals formulated in a non-phytotoxic solvent mixture which included a surfactant.
(§2) At the same time, plants selected from these crop and weed species and also winter barley (Hordeum vulgare), blackgrass (Alopecurus myosuroides), canary grass (Phalaris minor), chickweed (Stellaria media), downy brome (Bromus tectorum), green foxtail (Setaria viridis), Italian ryegrass (Lolium multiflorum), wheat (Triticum aestivum), wild oat (Avena fatua) and windgrass (Apera spica-venti) were treated with postemergence applications of some of the test chemicals formulated in the same manner. Plants ranged in height from 2 to 18 cm (1- to 4-leaf stage) for postemergence treatments. Plant species in the flooded paddy test consisted of rice (Oryza saliva), smallflower flatsedge (Cyperus difformis), duck salad (Heteranthera limosa) and barnyardgrass (Echinochloa crus-galli) grown to the 2-leaf stage for testing. Treated plants and controls were maintained in a greenhouse for 12 to 14 days, after which time all species were compared to controls and visually evaluated. Plant response ratings, summarized in Table C, are based on a scale of 0 to 100 where 0 is no effect and 100 is complete control. A dash (-) response means no test result.

[2] = tested on: crabgrass (Digitaria sanguinalis); details: for Plant response rating (0 to 100), Crabgrass: Rate 250 g/ha, visual evaluation after 12 to 14 days
Text: as §1, §2

[3] = tested on: morningglory (Ipomoea hederacea); details: for Plant response rating (0 to 100), Morningglory: Rate 250 g/ha, visual evaluation after 12 to 14 days
Text: as §1, §2

Nightshade = tested on: Nightshade
Text: as §1, §2

[4] = tested on: pigweed (Amaranthus retroflexus); details: for Plant response rating (0 to 100), Pigweed: Rate 250 g/ha, visual evaluation after 12 to 14 days
Text: as §1, §2

[5] = tested on: yellow nutsedge (Cyperus esculentus); details: for Plant response rating (0 to 100), Nutsedge: Rate 250 g/ha, visual evaluation after 12 to 14 days
Text: as §1, §2

[6] = tested on: velvetleaf (Abutilon theophrasti); details: for Plant response rating (0 to 100), Velvetleaf: Rate 250 g/ha, visual evaluation after 12 to 14 days
Text: as §1, §2

[7] = tested on: johnsongrass (Sorghum halepense); details: for Plant response rating (0 to 100), Johnsongrass: Rate 250 g/ha, visual evaluation after 12 to 14 days
Text: as §1, §2

[8] = tested on: goosegrass (Eleusine indica); details: for Plant response rating (0 to 100), Goosegrass: Rate 250 g/ha, visual evaluation after 12 to 14 days
Text: as §1, §2

Sunflower [9] = details: Rate 62 g/ha; scale 0 to 100, 0 no effect, 100 complete control
Text: as §1, §2

[10] = tested on: giant foxtail (Setaria faberii); details: for Plant response rating (0 to 100), Foxtail, Giant: Rate 250 g/ha, visual evaluation after 12 to 14 days
Text: as §1, §2

[11] = tested on: Surinam grass (Brachiaria decumbens); details: for Plant response rating (0 to 100), Surinam grass: Rate 250 g/ha, visual evaluation after 12 to 14 days
Text: as §1, §2

[12] = tested on: lambsquarters (Chenopodium album); details: for Plant response rating (0 to 100), Lambsquarters: Rate 250 g/ha, visual evaluation after 12 to 14 days
Text: as §1, §2

soybean (Glycine max) = details: for Plant response rating (0 to 100), Soybean: Rate 250 g/ha, visual evaluation after 12 to 14 days
Text: as §1, §2

corn (Zea mays) = details: for Plant response rating (0 to 100), Corn: Rate 250 g/ha, visual evaluation after 12 to 14 days
Text: as §1, §2

[13] = tested on: cocklebur (Xanthium strumarium); details: for Plant response rating (0 to 100), Cocklebur: Rate 250 g/ha, visual evaluation after 12 to 14 days
Text: as §1, §2

[14] = tested on: bermudagrass (Cynodon dactylon); details: for Plant response rating (0 to 100 where 0 is no effect and 100 is complete control), Bermudagrass: Rate 250 g/ha, visual evaluation after 12 to 14 days
Text: as §1, §2

kochia (Kochia scoparia) = details: for Plant response rating (0 to 100), Kochia: Rate 250 g/ha, visual evaluation after 12 to 14 days
Text: as §1, §2

Sunflower [15] = details: Rate 125 g/ha, scale 0 to 100, 0 no effect, 100 complete control
[16] = Rate 62 g/ha, scale 0 to 100, 0 no effect, 100 complete control
[17] = preemergence, Rate 31 g/ha, scale 0 to 100
[18] = preemergence, Rate 125 g/ha, scale 0 to 100, 0 no effect, 100 complete control
[19] = Rate 125 g/ha, scale 0 to 100, 0 no effect, 100 complete control

## CC(C)c1ccn(C2OCN(c3cccc(C(F)(F)F)c3)C2=O)n1 (centres unmarked) [Compound 27]
[1]; [16]
  Plant response rating, Cupgrass, Woolly: 50
[1]; [17]
  Plant response rating, Cupgrass, Woolly: 50
[1]; preemergence
  Plant response rating (0 to 100), Cupgrass, Woolly: 100
[1]; [18]
  Plant response rating, Cupgrass, Woolly: 80
[2]; [16]
  Plant response rating, Crabgrass: 100
[2]; [17]
  Plant response rating, Crabgrass: 90
[2]; preemergence
  Plant response rating (0 to 100), Crabgrass: 100
[2]; [18]
  Plant response rating, Crabgrass: 100
[3]; [16]
  Plant response rating, Morningglory: 20
[3]; [17]
  Plant response rating, Morningglory: 0
[3]; preemergence
  Plant response rating (0 to 100), Morningglory: 30
[3]; [18]
  Plant response rating, Morningglory: 20
Nightshade; Rate 31 g/ha, scale 0 to 100
  Plant response rating, Nightshade: 0
Nightshade; [16]
  Plant response rating, Nightshade: 0
Nightshade; [19]
  Plant response rating, Nightshade: 0
[4]; [16]
  Plant response rating, Pigweed: 0
[4]; [17]
  Plant response rating, Pigweed: 100
[4]; preemergence
  Plant response rating (0 to 100), Pigweed: 100
[4]; [18]
  Plant response rating, Pigweed: 100
[5]; [16]
  Plant response rating, Nutsedge: 60
[5]; [17]
  Plant response rating, Nutsedge: 30
[5]; preemergence
  Plant response rating (0 to 100), Nutsedge: 80
[5]; [18]
  Plant response rating, Nutsedge: 60
[6]; [16]
  Plant response rating, Velvetleaf: 0
[6]; [17]
  Plant response rating, Velvetleaf: 0
[6]; preemergence
  Plant response rating (0 to 100), Velvetleaf: 0
[6]; [18]
  Plant response rating, Velvetleaf: 0
[7]; [16]
  Plant response rating, Johnsongrass: 20
[7]; [17]
  Plant response rating, Johnsongrass: 0
[7]; preemergence
  Plant response rating (0 to 100), Johnsongrass: 50
[7]; [18]
  Plant response rating, Johnsongrass: 50
[8]; [16]
  Plant response rating, Goosegrass: 90
[8]; [17]
  Plant response rating, Goosegrass: 40
[8]; preemergence
  Plant response rating (0 to 100), Goosegrass: 100
[8]; [18]
  Plant response rating, Goosegrass: 100
Sunflower [9]
  Plant response rating, Sunflower: 20
[10]; [16]
  Plant response rating, Foxtail, Giant: 70
[10]; [17]
  Plant response rating, Foxtail, Giant: 0
[10]; preemergence
  Plant response rating (0 to 100), Foxtail, Giant: 0
[10]; [18]
  Plant response rating, Foxtail, Giant: 100
[11]; [16]
  Plant response rating, Surinam grass: 50
[11]; [17]
  Plant response rating, Surinam grass: 0
[11]; preemergence
  Plant response rating (0 to 100), Surinam grass: 80
[11]; [18]
  Plant response rating, Surinam grass: 50
[12]; [16]
  Plant response rating, Lambsquarters: 100
[12]; [17]
  Plant response rating, Lambsquarters: 100
[12]; preemergence
  Plant response rating (0 to 100), Lambsquarters: 100
[12]; [18]
  Plant response rating, Lambsquarters: 100
Soybean (Glycine max); [16]
  Plant response rating, Soybean: 30
Soybean (Glycine max); [17]
  Plant response rating, Soybean: 0
Soybean (Glycine max); preemergence
  Plant response rating (0 to 100), Soybean: 50
Soybean (Glycine max); [18]
  Plant response rating, Soybean: 40
Corn (Zea mays); [16]
  Plant response rating, Corn: 20
Corn (Zea mays); [17]
  Plant response rating, Corn: 0
Corn (Zea mays); preemergence
  Plant response rating (0 to 100), Corn: 30
Corn (Zea mays); [18]
  Plant response rating, Corn: 20
[13]; [16]
  Plant response rating, Cocklebur: 0
[13]; [17]
  Plant response rating, Cocklebur: 0
[13]; preemergence
  Plant response rating (0 to 100), Cocklebur: 0
[13]; [18]
  Plant response rating, Cocklebur: 0
[14]; [16]
  Plant response rating, Bermudagrass: 90
[14]; [17]
  Plant response rating, Bermudagrass: 30
[14]; preemergence
  Plant response rating (0 to 100 where 0 is no effect and 100 is complete control), Bermudagrass: 100
[14]; [18]
  Plant response rating, Bermudagrass: 100
Kochia (Kochia scoparia); [16]
  Plant response rating, Kochia: 100
Kochia (Kochia scoparia); [17]
  Plant response rating, Kochia: 0
Kochia (Kochia scoparia); preemergence
  Plant response rating (0 to 100), Kochia: 100
Kochia (Kochia scoparia); [18]
  Plant response rating, Kochia: 100
Sunflower [15]
  Plant response rating, Sunflower: 20

## O=C1C(n2ccc(C3CC3)n2)OCN1c1cccc(C(F)(F)F)c1 (centres unmarked) [Compound 28]
[1]; [16]
  Plant response rating, Cupgrass, Woolly: 50
[1]; [17]
  Plant response rating, Cupgrass, Woolly: 30
[1]; preemergence
  Plant response rating (0 to 100), Cupgrass, Woolly: 100
[1]; [18]
  Plant response rating, Cupgrass, Woolly: 70
[2]; [16]
  Plant response rating, Crabgrass: 90
[2]; [17]
  Plant response rating, Crabgrass: 90
[2]; preemergence
  Plant response rating (0 to 100), Crabgrass: 100
[2]; [18]
  Plant response rating, Crabgrass: 100
[3]; [16]
  Plant response rating, Morningglory: 0
[3]; [17]
  Plant response rating, Morningglory: 0
[3]; preemergence
  Plant response rating (0 to 100), Morningglory: 0
[3]; [18]
  Plant response rating, Morningglory: 0
Nightshade; Rate 31 g/ha, scale 0 to 100
  Plant response rating, Nightshade: 0
Nightshade; [16]
  Plant response rating, Nightshade: 0
Nightshade; [19]
  Plant response rating, Nightshade: 70
[4]; [16]
  Plant response rating, Pigweed: 70
[4]; [17]
  Plant response rating, Pigweed: 70
[4]; preemergence
  Plant response rating (0 to 100), Pigweed: 50
[4]; [18]
  Plant response rating, Pigweed: 100
[5]; [16]
  Plant response rating, Nutsedge: 50
[5]; [17]
  Plant response rating, Nutsedge: 50
[5]; preemergence
  Plant response rating (0 to 100), Nutsedge: 50
[5]; [18]
  Plant response rating, Nutsedge: 50
[6]; [16]
  Plant response rating, Velvetleaf: 0
[6]; [17]
  Plant response rating, Velvetleaf: 0
[6]; preemergence
  Plant response rating (0 to 100), Velvetleaf: 0
[6]; [18]
  Plant response rating, Velvetleaf: 0
[7]; [16]
  Plant response rating, Johnsongrass: 50
[7]; [17]
  Plant response rating, Johnsongrass: 0
[7]; preemergence
  Plant response rating (0 to 100), Johnsongrass: 70
[7]; [18]
  Plant response rating, Johnsongrass: 70
[8]; [16]
  Plant response rating, Goosegrass: 80
[8]; [17]
  Plant response rating, Goosegrass: 40
[8]; preemergence
  Plant response rating (0 to 100), Goosegrass: 100
[8]; [18]
  Plant response rating, Goosegrass: 100
Sunflower [9]
  Plant response rating, Sunflower: 20
[10]; [16]
  Plant response rating, Foxtail, Giant: 0
[10]; [17]
  Plant response rating, Foxtail, Giant: 0
[10]; preemergence
  Plant response rating (0 to 100), Foxtail, Giant: 0
[10]; [18]
  Plant response rating, Foxtail, Giant: 100
[11]; [16]
  Plant response rating, Surinam grass: 20
[11]; [17]
  Plant response rating, Surinam grass: 20
[11]; preemergence
  Plant response rating (0 to 100), Surinam grass: 60
[11]; [18]
  Plant response rating, Surinam grass: 60
[12]; [16]
  Plant response rating, Lambsquarters: 100
[12]; [17]
  Plant response rating, Lambsquarters: 100
[12]; preemergence
  Plant response rating (0 to 100), Lambsquarters: 100
[12]; [18]
  Plant response rating, Lambsquarters: 100
Soybean (Glycine max); [16]
  Plant response rating, Soybean: 0
Soybean (Glycine max); [17]
  Plant response rating, Soybean: 0
Soybean (Glycine max); preemergence
  Plant response rating (0 to 100), Soybean: 40
Soybean (Glycine max); [18]
  Plant response rating, Soybean: 40
Corn (Zea mays); [16]
  Plant response rating, Corn: 0
Corn (Zea mays); [17]
  Plant response rating, Corn: 0
Corn (Zea mays); preemergence
  Plant response rating (0 to 100), Corn: 30
Corn (Zea mays); [18]
  Plant response rating, Corn: 30
[13]; [17]
  Plant response rating, Cocklebur: 0
[13]; preemergence
  Plant response rating (0 to 100), Cocklebur: 0
[13]; [18]
  Plant response rating, Cocklebur: 0
[14]; [16]
  Plant response rating, Bermudagrass: 50
[14]; [17]
  Plant response rating, Bermudagrass: 20
[14]; preemergence
  Plant response rating (0 to 100 where 0 is no effect and 100 is complete control), Bermudagrass: 100
[14]; [18]
  Plant response rating, Bermudagrass: 100
Kochia (Kochia scoparia); [16]
  Plant response rating, Kochia: 40
Kochia (Kochia scoparia); [17]
  Plant response rating, Kochia: 0
Kochia (Kochia scoparia); preemergence
  Plant response rating (0 to 100), Kochia: 100
Kochia (Kochia scoparia); [18]
  Plant response rating, Kochia: 100
Sunflower [15]
  Plant response rating, Sunflower: 40
